Data: paper PMC7048748, “Anxiolytic Drug FGIN-1-27 Ameliorates Autoimmunity by Metabolic Reprogramming of Pathogenic Th17 Cells” (Scientific Reports, 2020)

How the values were obtained:
Th17 cells [1] = experiment: Th17 differentiation assay, intracellular IL-17 by flow cytometry; format: cell-based, mouse
Procedure: Because of differential TSPO expression in Th17 cells (Fig. S1a) and up-regulation of TSPO in neuroinflammation, we tested whether TSPO ligands, such as FGIN-1-27, can affect Th17 differentiation. In this assay, purified CD4^+ T cells from mouse spleens and lymph nodes were cultured under Th17 polarizing conditions. […] FGIN-1-27 treatment had no effect on protein or transcript levels of RORγt, the Th17 lineage-determining transcription factor.
Figure 1 FGIN-1-27 Inhibits Th17 Differentiation. Naïve CD4 T cells from spleens and lymph nodes of C57BL/6 mice were differentiated under Th17 polarization conditions and were treated with DMSO (control) or FGIN-1-27. (a) Dose response plot showing effect of FGIN-1-27 on intracellular IL-17 and viability on day 4 post activation quantified by flow cytometry. Data is normalized against DMSO (100%). […] (b) Dot plots showing DMSO or FGIN-1-27 treated cells stained for surface CD4, CD44, intracellular IL-17 and intranuclear RORγt. (c) Transcript levels for the indicated genes after 24 hours of treatment with DMSO or FGIN-1-27 quantified by qPCR. Data was normalized to a housekeeping gene, β-actin. Data are representative of at least 3 independent experiments and the error bars indicate standard deviation.
Single cell suspensions were prepared from spleens and lymph nodes of mice by mechanical disruption. Red blood cells were lysed by ammonium chloride followed by CD4^+ T cell purification using either CD4 microbeads (Miltenyi Biotec) or sorting for naïve CD4^+ T cells (FACS Aria). 250,000 cells/well in a 48 well plate were polarized into Th17 cells using Th17 differentiation cocktail: IFNγ, IL-4, IL-12 neutralizing antibodies (10 μg/ml) and 10 ng/ml each of IL-6, IL-1b, IL-21 and TGF-β (0.5 ng/ml). Cells were treated with FGIN-1-27 (Tocris Bioscience) or DMSO at 18 hour and 48 hours post cell plating. On day 4 of culture, cells were re-stimulated with PMA-ionomycin in the presence of brefeldin A. Cells were subsequently stained with viability dye and surface stained for CD44, CD4 followed by permeabilization using cytofix/cytoperm (BD biosciences) and stained for intracellular IL-17. RORγt intranuclear staining was performed after fixation and permeabilization with a Foxp3/Transcription Factor Staining kit (eBioscience). Cells were acquired on BD Fortessa followed by analysis using Flowjo (Tree star Inc).

[2] = design: method as in PMID 21119734, PMID 1326631, PMID 29698632; settings: cited from earlier work
[3] = tested on: Th17 cells from TSPO KO mice; experiment: Th17 differentiation with CD4 T cells from TSPO knockout mice; format: cell-based, mouse; settings: compared with T cells expressing TSPO
Source text: We explored the mechanism of action for FGIN-1-27 and whether the effect of FGIN-1-27 on Th17 differentiation was driven by TSPO, the reported target of this compound. We used two approaches: first, we investigated the correlation between FGIN-1-27 induced IL-17 down-regulation and binding to TSPO. For the binding studies, we used a biochemical radio ligand displacement assay with the well-characterized TSPO ligand PK-11195 as a tracer. […] Secondly, we purified CD4^+ T cells from spleen and lymph nodes of mice that lacked global expression of TSPO (TSPO KO mice)[19]. We added FGIN-1-27 to the cultures of CD4^+ T cells from controls or TSPO KO mice that were induced towards the Th17 differentiation program.
Figure 3 Effect of FGIN-1-27 on Th17 Differentiation is Independent of TSPO. (a) Plot showing correlation between binding of FGIN-1-27 to TSPO and effect on IL-17 production. Binding of FGIN-1-27 to TSPO was measured using a biochemical radiolabeled displacement assay and radiolabeled PK-11195 was used as a control ligand. (b) Immunoblot to detect TSPO from spleens of either control or TSPO knockout mice (upper panel) and dose response plot for FGIN-1-27 showing effect on Th17 differentiation using purified CD4 T cells from spleens of either control or TSPO knockout mice. IL-17 production was normalized using DMSO treatment from control cells as 100%. […]

Th17 cells [4] = experiment: Cholesterol panel (sterols) in Th17 cells; format: cell-based, mouse; settings: 72 hours; for 7-DHC / 7-HC / -SITO / CAMP / CHOL / COPR / CSTN: Cholestanol / DESM / LANO / LATH / SQUA / STIG / ZYMO: Cell
Procedure: Specific cholesterol precursors like desmosterol and oxysterols, such as 7β, 27-dihydroxycholesterol (7β, 27-OHC), have been identified as ligands for RORγt[21],[22] and shown to modulate Th17 differentiation. […] Next, we extended our studies to lipid metabolites and profiled the lipidome of Th17 cells treated with DMSO or FGIN-1-27. […]
(a) Indicated sterols were measured in Th17 cells treated with DMSO or FGIN-1-27 for
(1 picture or pasted object on this page, not shown here)

With `CCCCCCN(CCCCCC)C(=O)Cc1c(-c2ccc(F)cc2)[nH]c2ccccc12` [FGIN-1-27, N, N-di-n-hexyl 2-(4-fluorophenyl) indole-3-acetamide] the “protein or transcript levels of RORγt” value (Th17 cells [1]) was “no effect”, the “proliferation (CFSE dilution)” value (Th17 cells [1]; 72 hours post treatment) was “proliferated to the same extent as DMSO treated cells” and the IC50 (Th17 cells [1]; Mus musculus, 96 h, day 4 post activation, normalized against DMSO (100%)) was 4.85 µM. For the same molecule, the viability (Th17 cells [1]; Th17 polarizing conditions) was “without compromising viability”, the “IL-17 producing cells abolished” value (Th17 cells [1]; compared to DMSO treated cultures) was 85% and the “CD4 / CD44 dot plot, percent of cells” value (Th17 cells [1]; treated cells, Fig. 1b) was 98%. For the same molecule, the “IL-17 / RORγt dot plot, percent of cells” value (Th17 cells [1]; treated cells, Fig. 1b) was 8.0%, the “crossing of the blood brain barrier” value [2] was “can cross the blood brain barrier” and the “Th17 differentiation in T cells from TSPO KO mice” value [3] was “similarly to T cells expressing TSPO”. The “levels of cholesterol, its precursors and oxysterols” value (Th17 cells [4]; vs DMSO) was “comparable”, the 7-DHC (Th17 cells [4]) was 21.45 nMoles/billion and the 7-HC (Th17 cells [4]) was 0.68 nMoles/billion. For the same molecule, the “-SITO” value (Th17 cells [4]) was 1.81 nMoles/billion, the CAMP (Th17 cells [4]) was 4.37 nMoles/billion and the CHOL (Th17 cells [4]) was 1426.96 nMoles/billion. For the same molecule, the COPR (Th17 cells [4]) was 0.37 nMoles/billion, the “CSTN: Cholestanol” value (Th17 cells [4]) was 2.54 nMoles/billion and the DESM (Th17 cells [4]) was 26.06 nMoles/billion. It also gave an LANO (Th17 cells [4]) of 0.57 nMoles/billion, an LATH (Th17 cells [4]) of 10.58 nMoles/billion and an SQUA (Th17 cells [4]) of 13.58 nMoles/billion. It also gave an STIG (Th17 cells [4]) of 0.09 nMoles/billion, a ZYMO (Th17 cells [4]) of 0.37 nMoles/billion and a 7-DHC (Th17 cells [4]; listed as FGIN2) of 29.74 nMoles/billion. For the same molecule, the 7-HC (Th17 cells [4]; listed as FGIN2) was 1.01 nMoles/billion, the “-SITO” value (Th17 cells [4]; listed as FGIN2) was 66.45 nMoles/billion and the CAMP (Th17 cells [4]; listed as FGIN2) was 6.00 nMoles/billion. The CHOL (Th17 cells [4]; listed as FGIN2) was 1968.79 nMoles/billion, the COPR (Th17 cells [4]; listed as FGIN2) was 0.04 nMoles/billion and the “CSTN: Cholestanol” value (Th17 cells [4]; listed as FGIN2) was 5.53 nMoles/billion. For the same molecule, the DESM (Th17 cells [4]; listed as FGIN2) was 47.55 nMoles/billion, the LANO (Th17 cells [4]; listed as FGIN2) was 0.96 nMoles/billion and the LATH (Th17 cells [4]; listed as FGIN2) was 13.90 nMoles/billion. The SQUA (Th17 cells [4]; listed as FGIN2) was 16.54 nMoles/billion, the STIG (Th17 cells [4]; listed as FGIN2) was 8.18 nMoles/billion and the ZYMO (Th17 cells [4]; listed as FGIN2) was 0.44 nMoles/billion. For the same molecule, the 7-DHC (Th17 cells [4]; listed as FGIN3) was 22.18 nMoles/billion, the 7-HC (Th17 cells [4]; listed as FGIN3) was 1.04 nMoles/billion and the “-SITO” value (Th17 cells [4]; listed as FGIN3) was 2.54 nMoles/billion. For the same molecule, the CAMP (Th17 cells [4]; listed as FGIN3) was 7.76 nMoles/billion, the CHOL (Th17 cells [4]; listed as FGIN3) was 2113.85 nMoles/billion and the COPR (Th17 cells [4]; listed as FGIN3) was 0.0757 nMoles/billion. For the same molecule, the “CSTN: Cholestanol” value (Th17 cells [4]; listed as FGIN3) was 4.07 nMoles/billion, the DESM (Th17 cells [4]; listed as FGIN3) was 37.52 nMoles/billion and the LANO (Th17 cells [4]; listed as FGIN3) was 0.93 nMoles/billion. It also gave an LATH (Th17 cells [4]; listed as FGIN3) of 15.86 nMoles/billion, an SQUA (Th17 cells [4]; listed as FGIN3) of 17.48 nMoles/billion and an STIG (Th17 cells [4]; listed as FGIN3) of 0.73 nMoles/billion. It also gave a ZYMO (Th17 cells [4]; listed as FGIN3) of 0.68 nMoles/billion, a 7-DHC (Th17 cells [4]; listed as FGIN4) of 17.23 nMoles/billion and a 7-HC (Th17 cells [4]; listed as FGIN4) of 0.75 nMoles/billion. The “-SITO” value (Th17 cells [4]; listed as FGIN4) was 1.38 nMoles/billion, the CAMP (Th17 cells [4]; listed as FGIN4) was 4.69 nMoles/billion and the CHOL (Th17 cells [4]; listed as FGIN4) was 1456.01 nMoles/billion. The COPR (Th17 cells [4]; listed as FGIN4) was 0.06 nMoles/billion, the “CSTN: Cholestanol” value (Th17 cells [4]; listed as FGIN4) was 2.93 nMoles/billion and the DESM (Th17 cells [4]; listed as FGIN4) was 26.10 nMoles/billion. For the same molecule, the LANO (Th17 cells [4]; listed as FGIN4) was 0.61 nMoles/billion, the LATH (Th17 cells [4]; listed as FGIN4) was 10.88 nMoles/billion and the SQUA (Th17 cells [4]; listed as FGIN4) was 2.92 nMoles/billion. For the same molecule, the STIG (Th17 cells [4]; listed as FGIN4) was 0.05 nMoles/billion and the ZYMO (Th17 cells [4]; listed as FGIN4) was 0.40 nMoles/billion.
